# Experimental data: patent US12133855B2, “Lipid-like nanocomplexes and uses thereof” (Trustees of Tufts College, priority 2018, dated 2024)
# Tests used:
# [1] = tested on: Ai14 mice; experiment: In vivo genome editing, intravenous injection, tdTomato expression; design: species or system mouse; conditions: day 14
# Procedure: Similar to the in vitro transfection study, lipidoid nanoparticles were prepared for mRNA or protein loading and in vivo delivery. Ai14 mice were housed in a temperature and humidity controlled facility with a 12 h light/dark cycle. Three mice in each group were injected (intravenously or intramuscularly) with Cre mRNA-loaded or (−30)GFP-Cre protein-loaded LNPs formulations. Organs including heart, liver, spleen, lung and kidney from all groups were collected at day 10 (intramuscular injection) or 14 (intravenous injection) after injection. The tissues were fixed overnight in 4% paraformaldehyde (PFA) and dehydrated in 30% sucrose before being froze in OCT and sectioned into 10-15 μm slices. The slices were then collected and stained with DAPI for fluorescence imaging (BZ-X Analyzer fluorescence microscopy).
# Cre-loxP system and transgenic Ai14 mouse model were used in the in vivo genome editing study. […] When the Cre recombinase mediated gene reorganization occurs, the STOP cassette could be removed, resulting in the expression of fluorescent tdTomato reporter protein.
# The OCholB LNPs was further investigated if they can induce successful gene editing in vivo through a systemic administration pathway. At first, Ai14 mice (n=3) were injected through tail vein (intravenous (IV) injection) with (−30)GFP-Cre protein loaded LNPs at day 1 and 5 (50 μg protein for each injection; 100 μg in total), then sacrificed at day 14 for analysis (FIG. 17C). […] The heart, liver, spleen, lung and kidney from each group were collected and analyzed. […] Like most intravenous nano-therapeutics, the (−30)GFP-Cre protein complexed OCholB nanoparticles injected through tail vein would travel first to the heart, and from there directly to the lung. The nanoparticle formulations (which may have complexed with serum proteins) could be easily trapped in the vasculature structures in the capillary bed of the lung, delaying or inhibiting the redistribution of LNPs to the liver, spleen and other organs. During the in vivo transport and redistribution process, some of the protein loaded LNPs may successfully enter into the cells in lung or spleen to induce the genome editing and tdTomato expression cascade. Degradation, aggregation and/or immune cells sequestration of the cargo protein and carrier LNPs would dramatically reduce or perhaps even prohibit genome editing events.
# Next, in vivo systemic mRNA delivery using OCholB LNPs was tested using a similar intravenous injection protocol (FIG. 17C). Cre mRNA loaded 76-OCholB LNPs were injected at day 1 and day 5 (10 μg mRNA for each injection; 20 μg in total), and mice were sacrificed at day 14. All the major organs (heart, liver, spleen, lung and kidney) were collected and analyzed. […]
# [2] = TEM size of lipidoid nanoparticles; assay type: physicochemical; conditions: TEM images of LNPs
# Procedure: All chemicals used for lipidoids synthesis were purchased from Sigma-Aldrich without further purification unless otherwise noted. (−30)GFP-Cre recombinase, S. pyogenes Cas9 (spCas9) and sgRNA were generated following the protocols reported in Wang at al., Proc. Natl. Acad. Sci. USA, 2016, 113, 2868-2873 (“Wang”). HeLa-DsRed and GFP-HEK cells were cultured in Dulbecco's modified eagle's medium (DMEM, Sigma-Aldrich) with 10% fetal bovine serum (FBS, Sigma-Aldrich) and 1% penicillin-streptomycin (Gibco). All ^1H NMR spectra were recorded on a Bruker AVIII 500 MHz NMR spectrometer operated in the Fourier transform mode. Hydrodynamic size and polydispersity index of nanoparticles were measured by Zeta-PALS particle size analyzer (Brookhaven Instruments). The apparent pKa values of lipidoids were determined using 2-(p-toluidinynaphthalene-6-sulphonic acid) (TNS, Sigma-Aldrich) as fluorescent probe following the protocols reported in Heyes et al., J. Controlled Release, 2005, 107, 276-287. TEM measurements were performed on a FEI Technai Transmission Electron Microscope. Fluorescence images of tissue slices were obtained using BZ-X Analyzer fluorescence microscope.
# The morphologies of LNPs were further studied by the transmission electron microscopy (TEM). […] Subsequently, the stability of LNPs thus prepared was examined by DLS and fluorescence measurements.
# The morphologies of OCholB fully substituted LNPs were then examined by transmission electron microscopy (TEM). […] In contrast, the vesicular structures were not well-formed for 87-OCholB and 90-OCholB compared to their counterparts, and amorphous aggregates were observed instead.
# [3] = (−30)GFP-Cre loaded, IV day 1 and 5, 50 μg protein each
# [4] = Cre mRNA loaded, IV day 1 and 5, 10 μg mRNA each
compound,measurement,setting,value
CC(C)CCCC(C)C1CCC2C3CC=C4CC(OC(=O)NCCSSCCOC(=O)CCN(CCC(=O)OCCSSCCNC(=O)OC5CCC6(C)C(=CCC7C6CCC6(C)C(C(C)CCCC(C)C)CCC76)C5)CCN5CCCC5)CCC4(C)C3CCC12C (stereo not drawn) [Lipidoid 76-OCholB],genome editing efficacy in the spleen,[1]; [3],Relative high genome editing efficacy
same,tdTomato positive cells in the spleen,[1]; [4],significant amount of tdTomato positive cells
same,"tdTomato signals in other organs (heart, liver, lung, kidney)",[1]; [4],positive signals were not found
CC(C)CCCC(C)C1CCC2C3CC=C4CC(OC(=O)NCCSSCCOC(=O)CCN(CCCN(C)C)CCC(=O)OCCSSCCNC(=O)OC5CCC6(C)C(=CCC7C6CCC6(C)C(C(C)CCCC(C)C)CCC76)C5)CCC4(C)C3CCC12C (stereo not drawn) [Lipidoid 80-OCholB],genome editing efficacy in the lung,[1]; [3],Relative high genome editing efficacy
CCN(CC)CCCN(CCC(=O)OCCSSCCNC(=O)OC1CCC2(C)C(=CCC3C2CCC2(C)C(C(C)CCCC(C)C)CCC32)C1)CCC(=O)OCCSSCCNC(=O)OC1CCC2(C)C(=CCC3C2CCC2(C)C(C(C)CCCC(C)C)CCC32)C1 (stereo not drawn) [Lipidoid 81-OCholB],size measured by TEM,[2],216.9 nm
CC(C)CCCC(C)C1CCC2C3CC=C4CC(OC(=O)NCCSSCCOC(=O)CCN(C)CCN(CCN(C)CCC(=O)OCCSSCCNC(=O)OC5CCC6(C)C(=CCC7C6CCC6(C)C(C(C)CCCC(C)C)CCC76)C5)CCN(C)CCC(=O)OCCSSCCNC(=O)OC5CCC6(C)C(=CCC7C6CCC6(C)C(C(C)CCCC(C)C)CCC76)C5)CCC4(C)C3CCC12C (stereo not drawn) [Lipidoid 304-OCholB],size measured by TEM,[2],394.0 nm
